Results published in BigSolDB 2.1.

O=C(O)c1ccccc1O
solubility (mole fraction)
Settings	298.15 K	303.15 K	308.15 K	313.15 K	318.15 K
in acetic acid	0.0531	0.0617	0.0709	0.0785	0.0903
in acetone	0.175	0.196	0.203	0.218	0.231
in ethyl acetate	0.13	0.14	0.154	0.165	0.179
in methanol	0.123	0.137	0.15	0.163	0.172

OC/C=C/c1ccccc1
solubility (mole fraction)
Settings	253.15 K	258.15 K	263.15 K	268.15 K	273.15 K	278.15 K	283.15 K	288.15 K	293.15 K
in acetone	0.28	0.322	0.363	0.414	0.47	0.526	0.579	0.625	0.674
in ethanol	0.22	0.256	0.298	0.342	0.404	0.456	0.52	0.59	0.652
in ethyl acetate	0.208	0.243	0.29	0.351	0.416	0.486	0.547	0.61	0.659
in isobutanol	0.072	0.105	0.165	0.217	0.287	0.366	0.431	0.498	0.576
in isopropanol	0.195	0.242	0.288	0.33	0.394	0.446	0.512	0.582	0.649
in methanol	0.222	0.24	0.269	0.307	0.351	0.401	0.466	0.536	0.61
in methyl acetate	0.172	0.225	0.27	0.326	0.392	0.452	0.523	0.591	0.646
in n-butanol	0.125	0.162	0.214	0.269	0.342	0.412	0.479	0.553	0.608
in n-hexane	0.00446	0.00664	0.0104	0.0143	0.0194	0.0248	0.0294	0.0352	0.0418
in n-propanol	0.174	0.213	0.266	0.313	0.373	0.433	0.496	0.567	0.634
in sec-butanol	0.089	0.142	0.191	0.255	0.321	0.395	0.459	0.53	0.592
